From ChEMBL document CHEMBL1146985, “Investigation of the mechanism of action of 3-(4-bromophenyl)-5-acyloxymethyl-2,5-dihydrofuran-2-one against Candida albicans by flow cytometry” (Bioorg Med Chem Lett, 2006)
Activity calls are given as the source filed them. The calls are words filed in the database; no cut-off is given here.

Experiments:
[1] = system: Candida albicans; experiment: Antifungal activity against Candida albicans ATCC 90028 at 100 ug/ml; format: functional, organism-based
[2] = system: Candida albicans; experiment: Antifungal activity against Candida albicans ATCC 90028 at 10 ug/ml; format: functional, organism-based

## O=C1OC(CO)C=C1c1ccc(Br)cc1 (configuration not stated)
[1]
  Activity: Active

## CC(=O)OCC1C=C(c2ccc(Br)cc2)C(=O)O1 (configuration not stated)
[2]
  Activity: Active
